{
  "source": "patent US20040087661A1",
  "about": "“Treatment of CNS disorders with trans 4-3(3,4-dichlorophenyl)-1,2,3,4-tetrahydro-N-methyl-1-napthalenamine” (Sepracor, Inc., priority 2002, published 2004)",
  "key": {"[1]": {"biological_target": "T1, functional uptake of dopamine (DA) (Rattus norvegicus, UniProt P23977)", "T1 construct": "synaptosomes isolated at Cerep in a 0.32 M sucrose buffer from a male Wistar rat striatum; tissue Cerep; host or cells: male Wistar rat striatum synaptosomes", "T1 sequence (P23977 whole entry)": "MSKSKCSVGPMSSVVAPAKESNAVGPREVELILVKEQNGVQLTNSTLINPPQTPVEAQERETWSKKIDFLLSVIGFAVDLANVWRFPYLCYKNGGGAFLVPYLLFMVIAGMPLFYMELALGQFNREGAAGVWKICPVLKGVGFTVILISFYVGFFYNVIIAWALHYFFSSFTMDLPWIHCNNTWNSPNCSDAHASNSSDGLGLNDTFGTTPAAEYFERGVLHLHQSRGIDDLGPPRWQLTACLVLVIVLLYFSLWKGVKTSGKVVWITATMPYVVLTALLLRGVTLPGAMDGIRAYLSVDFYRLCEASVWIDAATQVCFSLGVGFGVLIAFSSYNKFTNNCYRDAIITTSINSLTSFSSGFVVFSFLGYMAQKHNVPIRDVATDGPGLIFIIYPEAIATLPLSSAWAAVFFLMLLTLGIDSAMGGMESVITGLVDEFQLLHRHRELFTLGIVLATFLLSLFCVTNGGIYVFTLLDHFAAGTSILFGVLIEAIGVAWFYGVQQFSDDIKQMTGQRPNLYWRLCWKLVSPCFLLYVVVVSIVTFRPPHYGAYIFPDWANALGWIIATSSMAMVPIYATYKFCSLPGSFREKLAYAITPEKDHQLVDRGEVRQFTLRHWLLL", "assay": "Dopamine functional uptake assay in rat striatum synaptosomes", "format": "biochemical", "details": "initial test at 10 μM in duplicate; read-out: inhibition of DA uptake (no IC50 determined)", "experimental": "Dopamine Functional Uptake Assay\nCharacterization of dopamine uptake is performed using synaptosomes isolated at Cerep in a 0.32 M sucrose buffer from a male Wistar rat striatum. The uptake of radiolabelled dopamine by synaptosomes (20 μg of proteins/point) is allowed by incubating them in a deep well for 15 minutes at 37° C. in presence of test compounds and [^3H]-dopamine (0.1 μCi/point).\nSynaptosomes and [^3H]-dopamine are prepared in a Krebs buffer pH 7.4 containing 25 mM NaHCO3, 11 mM glucose and 50 μM ascorbic acid. This incubation buffer is oxygenated during 5 minutes before incubation. Basal control is incubated for 15 minutes at 4° C. in order to avoid any uptake. Following this incubation the uptake is stopped by filtration through an “unifilter 96-wells GFB” Packard plate washed with Krebs buffer containing 25 mM NaHCO3 in order to eliminate the free [^3H]-dopamine. The radioactivity associated to the synaptosomes retained onto the unifilter corresponding to the uptake is then measured with a microplate scintillation counter Topcount, Packard using a scintillation liquid microscint 0, Packard."}, "[2]": {"biological_target": "T2, functional uptake of norepinephrine (NE) (Rattus norvegicus, UniProt Q63380)", "T2 construct": "synaptosomes isolated at Cerep in a 0.32 M sucrose buffer from a male Wistar rat hypothalamus; tissue Cerep; host or cells: male Wistar rat hypothalamus synaptosomes", "T2 sequence (Q63380 1-617)": "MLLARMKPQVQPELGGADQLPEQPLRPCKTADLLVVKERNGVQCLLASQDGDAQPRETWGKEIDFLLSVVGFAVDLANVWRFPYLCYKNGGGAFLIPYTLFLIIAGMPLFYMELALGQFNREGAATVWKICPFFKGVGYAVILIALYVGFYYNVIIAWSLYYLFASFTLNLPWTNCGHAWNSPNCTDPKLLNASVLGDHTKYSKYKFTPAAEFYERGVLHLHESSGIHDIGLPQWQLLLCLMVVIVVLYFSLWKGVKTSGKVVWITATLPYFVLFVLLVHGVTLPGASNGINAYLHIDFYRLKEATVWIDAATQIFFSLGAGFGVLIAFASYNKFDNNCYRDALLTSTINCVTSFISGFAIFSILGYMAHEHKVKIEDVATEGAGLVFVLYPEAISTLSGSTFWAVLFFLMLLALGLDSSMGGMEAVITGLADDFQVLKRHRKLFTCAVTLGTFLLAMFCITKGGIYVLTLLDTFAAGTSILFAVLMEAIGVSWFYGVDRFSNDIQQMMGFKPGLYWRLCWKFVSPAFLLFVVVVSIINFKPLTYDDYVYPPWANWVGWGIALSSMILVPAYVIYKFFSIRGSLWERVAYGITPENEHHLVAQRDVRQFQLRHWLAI", "assay": "Norepinephrine functional uptake assay in rat hypothalamus synaptosomes", "format": "biochemical", "details": "read-out: inhibition of NE uptake (no IC50 determined)", "experimental": "Norepinephrine Functional Uptake Assay\nCharacterization of norepinephrine uptake is performed using synaptosomes isolated at Cerep in a 0.32 M sucrose buffer from a male Wistar rat hypothalamus. The uptake of radiolabeled norepinephrine by synaptosomes (100 μg of proteins/point) is allowed by incubating them in a deep well for 20 minutes at 37° C. in presence of test compounds and [^3H]-norepinephrine (0.1 μCi/point).\nSynaptosomes and [^3H]-norepinephrine are prepared in a Krebs buffer pH 7.4 containing 25 mM NaHCO3, 11 mM glucose and 50 μM ascorbic acid. This incubation buffer is oxygenated during 5 minutes before incubation. Basal control is incubated for 20 minutes at 4° C. in order to avoid any uptake. Following this incubation the uptake is stopped by filtration through an “unifilter 96-wells GFB” Packard plate washed with Krebs buffer containing 25 mM NaHCO3 in order to eliminate the free [^3H]-norepinephrine. The radioactivity associated to the synaptosomes retained onto the unifilter corresponding to the uptake is then measured with a microplate scintillation counter Topcount, Packard using a scintillation liquid microscint 0, Packard."}},
  "note": "Where two headings read alike, the source gives them in different places.",
  "data": [
    {"compound": "CNCCCC1c2ccccc2C=Cc2ccccc21", "note": "[protriptyline]", "values": [
      {"measurement": "inhibition at 10 µM", "setting": "[1]", "value": "< 50", "unit": "%"}
    ]},
    {"compound": "Fc1ccc(C(OCCN2CCN(CCCc3ccccc3)CC2)c2ccc(F)cc2)cc1", "note": "[GBR 12909]", "values": [
      {"measurement": "inhibition at 10 µM", "setting": "[2]; initial test at 10 μM in duplicate", "value": "< 50", "unit": "%"}
    ]},
    {"compound": "CN(C)CCCN1c2ccccc2CCc2ccccc21", "note": "[imipramine]", "values": [
      {"measurement": "inhibition at 10 µM", "setting": "[1]", "value": "< 50", "unit": "%"},
      {"measurement": "inhibition at 10 µM", "setting": "[2]", "value": "< 50", "unit": "%"}
    ]}
  ]
}
